Test results published in the NIST ThermoML archive (doi:10.1021/je4009238).

How the values were obtained:
[1] = xn = mol fraction of the nth substance listed; conditions: 318.15 K, 101 kPa, Liquid
[2] = refractive index (Na D-line) (dimensionless); xn = mol fraction of the nth substance listed; conditions: 101 kPa, Liquid

CCCCn1cc[n+](C)c1.[Cl-] [1-butyl-3-methylimidazolium chloride] + CN(C)C=O
[1]
Conditions	mass density [kg/m3]	viscosity [mPa·s]
x1 = 0.0086	929.42	0.7351
x1 = 0.0172	933.2	0.772
x1 = 0.026	936.41	0.8352
x1 = 0.0351	940.14	0.8995
x1 = 0.0443	943.38	0.9641
x1 = 0.0541	946.75	1.026
x1 = 0.0638	950.28	1.078
x1 = 0.0738	953.24	1.175
x1 = 0.0841	956.58	1.241
x1 = 0.0947	959.89	1.311
x1 = 0.1056	962.99	1.424
x1 = 0.1167	966.03	1.518
x1 = 0.1282	969.28	1.651
x1 = 0.1399	972.26	1.796
x1 = 0.152	975.4	1.944

refractive index, [2]
Conditions	288.15 K	298.15 K	308.15 K	318.15 K
x1 = 0.0086	1.43562	1.43088	1.42611	1.42147
x1 = 0.0172	1.43757	1.43313	1.42836	1.42379
x1 = 0.026	1.4401	1.43537	1.4306	1.42611
x1 = 0.0351	1.44223	1.43761	1.43285	1.42842
x1 = 0.0443	1.44442	1.4398	1.43505	1.43069
x1 = 0.0541	1.4466	1.44206	1.43731	1.43303
x1 = 0.0638	1.44861	1.44422	1.43948	1.43526
x1 = 0.0738	1.45083	1.44638	1.44163	1.43748
x1 = 0.0841	1.45282	1.44852	1.44378	1.4397
x1 = 0.0947	1.45492	1.45063	1.4459	1.44188
x1 = 0.1056	1.45766	1.45271	1.44799	1.44402
x1 = 0.1167	1.45909	1.45475	1.45003	1.44612
x1 = 0.1282	1.46111	1.45676	1.45205	1.4482
x1 = 0.1399	1.46315	1.45871	1.45401	1.45021
x1 = 0.152	1.46516	1.46064	1.45595	1.45219
